Results on two compounds are retold here after publication PMC10162847 (Phytomedicine, 2023).

Where two headings read alike, the source gives them in different places.

Usually EC50 stands for the midpoint of the concentration-response curve.

The subject of data set [1] is DNFB-induced ear edema. To be noted: DTH model.
The subject of data set [2] is carrageenan-induced paw edema. Put plainly: Carrageenan-induced paw edema in rats. To be noted: oral 50, 100, 200 mg/kg for 7 days, 2nd-5th h after carrageenan injection. In kind it is in vivo, Sprague-Dawley (SD) rats.
The subject of data set [3] is Vero E6 cells. As to conditions: MTT, 72 h.
For data set [4], the system named is HCoV-229E. Put plainly: microbe, parasite or virus in culture. In kind it is cell-based. To be noted: Human coronavirus 229E.
For data set [5] the following is noted: KM mice, oral 6000 mg/kg (2000 mg/kg 3 times within 24 h), 7 days observation.
Data set [6] relates to dimethylbenzene-induced auricular edema.
The test system of data set [7] is SARS-CoV-2 pseudo typed lentivirus. Format: cell-based. To be noted: fluorescence signal, 0-300 μM, pre-incubation 0.5 h.
Data set [8] relates to LPS-induced acute lung injury. In kind it is in vivo, C57BL/6 mice. To be noted: ALI mice.
Data set [9] deals with RIPK1/NF-κB pathway in THP1 macrophages. Format: cell-based.
The target of data set [10] is interactions between the RBD^WT and ACE2 protein (Severe acute respiratory syndrome coronavirus 2, UniProt P0DTC2). Format: binding. As to conditions: ELISA. On the technique in general: In an ELISA, binding on a coated surface is turned into a signal by an enzyme label.
Data set [11] has as its system SARS-CoV-2. In kind it is cell-based. To be noted: VeroE6 cells, concentration-dependent.
Data set [12] in a line: in vitro. To be noted: human.
[13] abbreviates: Huh-7, read-out: EC50, HCoV-229E replication, CPE assay.
The mark [14] stands for this setting: Huh-7, read-out: EC50, HCoV-229E replication, MTT assay.
The mark [15] stands for this setting: oral pre-treatment 200, 300, 400 mg/kg.
The mark [16] stands for this setting: western blotting, THP1 macrophages.

Take `O=c1c(O)c(-c2cc(O)c(O)c(O)c2)oc2cc(O)cc(O)c12` [myricetin, 3,5,7-trihydroxy-2-(3,4,5-tri hydroxyphenyl)-4-benzopyrone]: the organ damage entry in data set [1] (BALB/c mice) is given as “without any organ damage”. Also, in data set [1] (oral 50, 100, 200 mg/kg, 20, 40, 60 and 80 min after modeling), the mouse ear thickness entry was “decreased”. Also, the “inflammatory activity (paw edema)” value in data set [2] was “significantly reduce”. Also, the CC50 in data set [3] amounted to 248 µM. For the same compound, the EC50 in [4] (setting [13]) came out at 53.5 µM. Moreover, the EC50 in [4] (setting [14]) was determined as 61.5 µM. Besides, the “acute toxicity, exposure-related clinical symptoms” value in [5] was “no exposure-related clinical signs”. In addition, the immune organ toxicity result in [6] (dimethylbenzene-induced auricular edema model) is “without immune organ toxicity”. In addition, the “edema formation in the dermis” value in data set [6] (dimethylbenzene-induced auricular edema, 7 days pre-treatment) is “significantly suppressed”. For the same compound, the “binding of the SARS-CoV-2 pseudo typed lentivirus to HEK293-hACE2-mCherry cells” value in data set [7] is given as “repressed”. Also, the “mRNA levels of TNFα, IL-6 and NF-κBp65 in the lung tissues” value in [8] is given as “significantly downregulated”. Moreover, in data set [8] (setting [15]), the alveolar inflammation result is “decreased the alveolar inflammation” and the lung edema result was “alleviated lung edema”. In addition, in data set [9] (LPS-induced THP1 macrophages, 100, 200, 400 μM), the “RIPK1 expression levels and mRNA levels of NF-κBp65, RIPK3, RIPK1, MLKL, FADD, Caspase8 and JNK” value is “significantly reduced”. Further, in data set [9] (setting [16]), the “RIPK1, phosphorylation of NF-κBp65 and RIPK1 induced by LPS stimulation” value is “significantly inhibited”; the “abundance of the NF-κBp65 protein among the total proteins” value is listed as “unaltered”. The “interactions between the RBD^WT and ACE2 protein” value in [10] was “significantly inhibited”.

Consider `CCC(CC)COC(=O)[C@H](C)N[P@](=O)(OC[C@H]1O[C@@](C#N)(c2ccc3c(N)ncnn23)[C@H](O)[C@@H]1O)Oc1ccccc1` [remdesivir, reference compound], for which the figures for the concentration giving a half-maximal response (EC50) in data set [4] (setting [13]) and in data set [4] (setting [14]) were 0.0562 µM and 0.0583 µM, respectively. Besides, the SARS-CoV-2 proliferation result in data set [11] is given as “inhibited”. The compound further yielded a CC50 in data set [12] of 108 µM.
